Data as given in paper PMC3742014 (Journal of medicinal chemistry, 2010).

Key:
[1] = biological target: E. coli MTAN (Escherichia coli, UniProt P0AF12); experiment: Inhibition of E. coli MTAN, xanthine oxidase-coupled enzyme assay; assay type: biochemical; conditions: Km of MTA over Ki of the inhibitor
[2] = biological target: T1, human MTAP (Homo sapiens, UniProt Q13126); assay type: biochemical; conditions: for Km/Ki ratio for human MTAP: Km of MTA over Ki of the inhibitor
T1 sequence (Q13126 1-283): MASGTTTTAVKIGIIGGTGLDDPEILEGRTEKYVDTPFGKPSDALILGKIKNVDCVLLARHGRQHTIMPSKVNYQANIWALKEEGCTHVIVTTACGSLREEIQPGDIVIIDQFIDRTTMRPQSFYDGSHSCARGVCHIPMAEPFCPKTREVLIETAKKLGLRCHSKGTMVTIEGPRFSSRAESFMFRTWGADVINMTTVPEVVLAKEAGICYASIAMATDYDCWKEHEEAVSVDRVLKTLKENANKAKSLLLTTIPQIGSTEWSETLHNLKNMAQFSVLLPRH

Row | Better competitor for the catalytic site of human MTAP than for E. coli MTAN, factor ([2]; from the Km/Ki ratios) | Structure (SMILES) | Km/Ki ratio for E. coli MTAN [1] | Km/Ki ratio for human MTAP [2]
1 |  | C=CC[C@H]1CN(Cc2c[nH]c3c(N)ncnc23)C[C@@H]1O (racemic) [(±)-41, (±)-trans-4-Allyl-1-[(9-deaza-adenin-9-yl)methyl]-3-hydroxypyrrolidine] | 1228 | 1759
2 |  | Nc1ncnc2c(CN3C[C@H](CCCSCc4ccccc4)[C@@H](O)C3)c[nH]c12 (racemic) [(±)-57, (±)-trans-4-[3-(Benzylthio)propyl]-1-[(9-deaza-adenin-9-yl)methyl]-3-hydroxypyrrolidine] | 7963 | 74
3 |  | C=C[C@H]1CN(Cc2c[nH]c3c(N)ncnc23)C[C@@H]1O (racemic) [(±)-40, (±)-trans-1-[(9-Deaza-adenin-9-yl)methyl]-3-hydroxy-4-vinylpyrrolidine] | 662 | 1649
4 | 6 | CC[C@H]1CN(Cc2c[nH]c3c(N)ncnc23)C[C@@H]1O (racemic) [(±)-28, (±)-trans-1-[(9-Deaza-adenin-9-yl)methyl]-4-ethyl-3-hydroxypyrrolidine] | 512 | 
